Source: paper PMC5216877, “Exploring conformational equilibria of a heterodimeric ABC transporter” (eLife, 2017)
Like-named read-outs stand apart in the source and are kept apart here. Marks after values point to notes of the source that are not given here.

What was measured:
TM287/288 [1] = molecular target: T1, TM287/288 (Thermotoga maritima, UniProt Q9WYC3+Q9WYC4, C28S/C496S/C519S/C558S/C73S); assay: ATPase activity of detergent-purified wildtype TM287/288 (molybdate/malachite green phosphate detection); assay type: biochemical; settings: for Km: read-out: Km for ATP
TM287/288 [2] = molecular target: T1, TM287/288; assay: Inhibition of ATPase activity of TM287/288 by vanadate and nucleotides; assay type: biochemical; settings: for IC50: 500 µM ATP, read-out: IC50; for Ki: calculated from IC50 and Km, read-out: Ki
Protocol: Nucleotide binding and hydrolysis follow a complex mechanism in heterodimeric ABC exporters, due to the existence of a degenerate and a consensus site in the NBDs. […] Using the relation IC50=Ki(1+[S]/Km), Ki values for the respective nucleotides were determined (Table 2). […] It is well established that ATPγS is slowly hydrolyzed by ATPases, as for example the F1Fo-ATPase ([Turina and Capaldi, 1994]). […] It is reasonable to assume that TM287/288 is as well capable of slow ATPγS hydrolysis. In addition, we tested whether TM287/288 hydrolyzes AMP-PNP. In contrast to ATPγS, hydrolysis of AMP-PNP releases Pi, which can be detected by the molybdate/malachite green method.
(§1) in which f corresponds to the ATPase activity at the respective inhibitor concentration divided by the ATPase activity in the absence of inhibitor normalized to 100%, y0 corresponds to the residual activity at infinite inhibitor concentration, a corresponds to the maximal degree of inhibition (a+y0=100%) and x corresponds to the inhibitor concentration.
(§2) Ki values were calculated according to the formula Ki=IC50/(1+[S]/Km)
(§3) IC50 and Km values were obtained from data fitting as outlined above.
(§4) Standard errors for the Ki values were calculated by error propagation: σKi = (Km/Km+[S])^2 σIC502+ ([S]IC50/(Km+[S])^2)^2 σKm2
(§5) in which the σIC50 and σKm are standard errors obtained from data fitting in SigmaPlot and σKi is the standard error for Ki .

BmrCD [3] = molecular target: T2, BmrCD (Bacillus subtilis, UniProt O07549+O07550, C154A/C256A/C351A); assay: Inhibition of ATPase activity of BmrCD by nucleotide analogs; assay type: biochemical; settings: BmrCD, 25°C
T2 construct: made in house; host or cells: E. coli MC1061
Protocol: as §1, §2, §3, §4, §5

TM287/288 [4] = assay: DEER two-Gaussian fit of IF/OF populations, wildtype TM287/288; design: species or system Thermotoga maritima; settings: estimated errors 10%
Protocol: (§6) All nucleotides and nucleotide analogs used in this study were added at saturating conditions well above their Ki values (Table 2). […] Therefore, the IF/OF fractions detected in the sample reflect the average life time that the nucleotide-bound transporter spends in either conformation. To rank the nucleotides in terms of their ability to support the transition to the OF conformation, we used three representative pairs in the wildtype transporter and the E-to-Q mutant: one in the extracellular region (50^TM287/271^TM287), one in the intracellular region (131^TM288/248^TM288) of the TMDs, and one in the NBDs (460^TM287/363^TM288) for which the distance peaks corresponding to the two states were distinguishable. A two-Gaussian fit of the DEER traces was performed to obtain the area of the corresponding IF and OF distance peaks (Figure 5—source data 1). The rank of nucleotides with respect to increasing fractions of the OF populations (Figure 5A) was: ADP-Mg ≈ AMP-PNP-Mg < ATP-EDTA < ATPγS-Mg < ATP-Mg < ATP-Vi-Mg. The order is similar for the wildtype and E-to-Q mutant transporter. However, the OF state is in general more populated in the E-to-Q mutant, which is best explained by an alteration of the energy profile caused by the mutation. This notion is best appreciated for ATP-EDTA and ATP-Mg, which could trigger an almost complete switch in the molecular ensemble of the E-to-Q mutant (Figure 5B).
(§7) The labeling efficiency of the double cysteine mutants of the transporters solubilized in detergent was measured at 25°C using an X-band Miniscope 400 EPR spectrometer (Magnettech by Freiberg Instrument). Samples were loaded into glass capillaries with the inner diameter of 0.9 mm and spectra were measured with 14 mT field sweep, 0.15 mT modulation amplitude, 2.5 mW microwave power. The calculated spin labeling efficiencies of the twelve mutants ranged between 70–90% (the second integral of the EPR spectra was calculated with the software available at spintoolbox.com). The high degree of labeling is correlated with the 0.3–0.4 modulation depths of all Q-band DEER traces presented. For DEER measurements, 10% v/v D8- glycerol was added prior to snap freezing. The range of final protein concentrations was 12 to 41 µM. 40 µL of sample were loaded in quartz tubes with 3 mm outer diameter. If not stated differently, samples were incubated at 25°C for 10 min (TM287/288 and MsbA) or 15 min (BmrCD) and snap frozen in liquid nitrogen. To study the effect of high physiological temperatures on the frozen dynamics of the transporter, samples were loaded in the quartz tubes, incubated for 3 min at 80°C on a heat block and snap frozen in a mixture of isopentane and liquid nitrogen to minimize the freezing time. […] The nucleotide analogs AMP-PNP-Mg and ATPγS-Mg (2.5 mM) were also prepared in the presence of 2.5 mM MgCl2. In case of ADP-Mg, 2.5 mM ADP and 2.5 mM MgCl2 were added.
(§8) Double electron-electron resonance (DEER) measurements were performed at 50 K on a Bruker ELEXSYS E580Q-AWG (arbitrary wave generator) dedicated pulse Q-band spectrometer equipped with a 150 W TWT amplifier. A 4-pulse DEER sequence with rectangular, non-selective observer and pump pulses of 14 or 16 ns length (depending on the available B1 at the sample) with 100 MHz frequency separation was used ([Polyhach et al., 2012]). Due to the coherent nature of the AWG generated pulses, a four-step phase cycling (0 – π/2 - π – 3/2π) of the pump π pulse was performed to remove unwanted effects of running echoes from the DEER trace. The evaluation of the DEER data was performed using DeerAnalysis2015 ([Jeschke et al., 2006]). The background of the primary DEER traces was corrected using stretched exponential functions with homogeneous dimensions of 1.5 to 3 for different samples. A model-free Tikhonov regularization was used to extract distance distributions from the background corrected form factors. […]

TM287/288 E517Q = assay: DEER two-Gaussian fit of IF/OF populations, E-to-Q mutant of TM287/288; design: species or system Thermotoga maritima; settings: estimated errors 10%
Protocol: as §6, §7, §8

MsbA [5] = test system: MsbA; design: method as in Moeller et al., 2015; settings: single particle EM; ref Moeller et al., 2015; cited from earlier work
TM287/288_E517Q^TM288 = assay: Residual ATPase activity of E-to-Q mutant of TM287/288 in detergent; assay type: biochemical, Thermotoga maritima; settings: E-to-Q mutant of TM287/288, 25°C
Protocol: (§9) Incubation with buffers containing the same nucleotide concentration without protein served for background subtraction in these assays.

BmrCD [6] = molecular target: T2, BmrCD; assay: ATPase activity of detergent-purified wildtype BmrCD; assay type: biochemical; settings: 25°C
BmrCD_E592Q^BmrD = molecular target: T3, BmrCD_E592Q^BmrD (Bacillus subtilis, UniProt O07549+O07550, C154A/C256A/C351A/E592Q); assay: Residual ATPase activity of E-to-Q mutant of BmrCD in detergent; assay type: biochemical; settings: 25°C
T3 construct: made in house; host or cells: E. coli MC1061
Protocol: as §9

MsbA [7] = assay: ATPase activity of detergent-purified MsbA; settings: ATP-Mg, 30°C
Spin-labeled TM287/288 = assay: ATPase activity of spin-labeled TM287/288 mutants in detergent; settings: 50°C, relative to internal wildtype control
[8] = wildtype TM287/288, AMP-PNP-Mg as nucleotide, 25°C [sic], detergent
[9] = spin-labeled pair 50^TM287-271^TM287 WT
[10] = spin-labeled pair 131^TM288-248^TM288 WT
[11] = spin-labeled pair 460^TM287-363^TM288 WT
[12] = spin-labeled pair 50^TM287-271^TM287 E517Q
[13] = spin-labeled pair 131^TM288-248^TM288 E517Q
[14] = spin-labeled pair 460^TM287-363^TM288 E517Q
[15] = wildtype TM287/288, ATP-Mg, 25°C, detergent
[16] = wildtype TM287/288, ATP-Mg, 50°C, detergent
[17] = wildtype BmrCD, ATP-Mg, detergent
[18] = BmrCD E592Q^BmrD, ATP-Mg, detergent

T2 sequence (O07550 whole entry): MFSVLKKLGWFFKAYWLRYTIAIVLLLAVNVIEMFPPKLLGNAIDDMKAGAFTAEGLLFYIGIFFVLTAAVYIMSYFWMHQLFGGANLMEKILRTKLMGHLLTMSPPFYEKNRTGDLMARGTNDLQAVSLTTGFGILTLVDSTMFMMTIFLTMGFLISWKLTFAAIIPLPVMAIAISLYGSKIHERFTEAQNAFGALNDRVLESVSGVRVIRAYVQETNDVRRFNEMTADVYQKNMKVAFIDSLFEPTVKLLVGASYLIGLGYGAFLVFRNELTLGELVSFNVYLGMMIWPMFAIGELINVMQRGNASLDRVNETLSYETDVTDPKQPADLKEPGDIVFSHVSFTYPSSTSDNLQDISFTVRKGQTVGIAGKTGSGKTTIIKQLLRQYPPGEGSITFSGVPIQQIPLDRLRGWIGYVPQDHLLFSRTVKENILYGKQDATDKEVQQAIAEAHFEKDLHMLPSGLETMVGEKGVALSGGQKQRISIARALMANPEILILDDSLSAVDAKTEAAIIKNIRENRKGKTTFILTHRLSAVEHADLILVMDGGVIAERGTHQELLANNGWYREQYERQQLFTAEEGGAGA
T2 sequence (O07549 whole entry C154A/C256A/C351A): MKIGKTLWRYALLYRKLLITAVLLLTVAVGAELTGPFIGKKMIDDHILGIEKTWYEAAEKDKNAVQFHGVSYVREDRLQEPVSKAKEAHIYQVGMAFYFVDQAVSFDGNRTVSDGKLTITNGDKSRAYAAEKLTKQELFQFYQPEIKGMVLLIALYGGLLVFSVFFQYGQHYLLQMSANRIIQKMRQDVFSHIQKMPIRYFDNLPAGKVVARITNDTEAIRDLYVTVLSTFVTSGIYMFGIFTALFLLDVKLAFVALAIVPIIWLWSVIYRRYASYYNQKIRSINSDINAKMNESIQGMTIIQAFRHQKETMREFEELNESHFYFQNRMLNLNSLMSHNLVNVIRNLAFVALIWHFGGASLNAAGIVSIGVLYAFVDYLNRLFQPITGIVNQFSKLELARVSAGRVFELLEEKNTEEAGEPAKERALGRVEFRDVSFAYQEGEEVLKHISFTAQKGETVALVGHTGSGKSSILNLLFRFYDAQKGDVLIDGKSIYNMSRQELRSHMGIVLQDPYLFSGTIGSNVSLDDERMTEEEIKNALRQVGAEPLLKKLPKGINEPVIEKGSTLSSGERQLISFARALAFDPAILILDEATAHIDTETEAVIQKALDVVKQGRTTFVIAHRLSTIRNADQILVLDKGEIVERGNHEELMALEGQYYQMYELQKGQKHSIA
T3 sequence (O07550 whole entry): as the sequence (O07550 whole entry) above
T3 sequence (O07549 whole entry C154A/C256A/C351A/E592Q): as the sequence (O07549 whole entry C154A/C256A/C351A) above, with E592Q counted along it

Structure (SMILES): Nc1ncnc2c1ncn2[C@@H]1O[C@H](COP(=O)(O)OP(=O)(O)NP(=O)(O)O)[C@@H](O)[C@H]1O [AMP-PNP]
- cleavage of AMP-PNP (sensitivity of assay) (TM287/288 [1]; wildtype TM287/288, AMP-PNP as nucleotide): < 0.01 Pi min^−1
- ATPase activity (hydrolysis of AMP-PNP) (TM287/288 [1]; [8]): <0.1 nmol Pi/min/mg protein
- ATPase activity, % of wildtype (hydrolysis of AMP-PNP) (TM287/288 [1]; [8]): <0.005%
- Turnover per transporter (hydrolysis of AMP-PNP) (TM287/288 [1]; [8]): <0.01 min⁻¹
- IC50 (TM287/288 [2]; TM287/288, 25°C): 179 ± 75 µM
- Ki (TM287/288 [2]; TM287/288, 25°C): 1.17 ± 0.51 µM
- IC50 (TM287/288 [2]; TM287/288, 50°C): 16.1 ± 1.6 µM
- Ki (TM287/288 [2]; TM287/288, 50°C): 0.246 ± 0.042 µM
- IC50 (BmrCD [3]; 2500 µM ATP, read-out: IC50): 174 ± 24 µM
- Ki (BmrCD [3]; calculated from IC50 and Km, read-out: Ki): 21 ± 3.2 µM
- IF frac (TM287/288 [4]; [9]): 85.4%
- OF frac (TM287/288 [4]; [9]): 14.6%
- IF frac (TM287/288 [4]; [10]): 100%
- OF frac (TM287/288 [4]; [10]): 0%
- IF frac (TM287/288 [4]; [11]): 90.7%
- OF frac (TM287/288 [4]; [11]): 9.3%
- IF frac (TM287/288 E517Q; [12]): 64.9%
- OF frac (TM287/288 E517Q; [12]): 35.1%
- IF frac (TM287/288 E517Q; [13]): 100%
- OF frac (TM287/288 E517Q; [13]): 0%
- IF frac (TM287/288 E517Q; [14]): 65.8%
- OF frac (TM287/288 E517Q; [14]): 34.2%
- fraction of outward-facing MsbA (MsbA [5]): 41%

Structure (SMILES): Nc1ncnc2c1ncn2[C@@H]1O[C@H](COP(=O)(O)OP(=O)(O)OP(=O)(O)O)[C@@H](O)[C@H]1O [ATP]
- Km (TM287/288 [1]; TM287/288, 25°C): 3.27 ± 0.42 µM
- Km (TM287/288 [1]; TM287/288, 50°C): 7.78 ± 1.1 µM
- turnover rate (TM287/288 [1]; wildtype TM287/288, ATP-Mg, 25°C): 11 ATP min^−1
- ATPase activity (TM287/288 [1]; [15]): 86.1 ± 2.5 nmol Pi/min/mg protein
- Turnover per transporter (TM287/288 [1]; [15]): 11.4 min⁻¹
- ATPase activity (TM287/288 [1]; [16]): 2141 ± 67 nmol Pi/min/mg protein
- Turnover per transporter (TM287/288 [1]; [16]): 284 min⁻¹
- ATPase turnover rate (TM287/288_E517Q^TM288): 0.022 ATP min^−1
- Km (BmrCD [6]; read-out: Km for ATP, BmrCD): 343 ± 24 µM
- ATPase activity (BmrCD [6]; [17]): 22.9 ± 0.5 nmol Pi/min/mg protein
- Turnover per transporter (BmrCD [6]; [17]): 3.24 min⁻¹
- ATPase activity (BmrCD_E592Q^BmrD; [18]): 0.633 ± 0.053 nmol Pi/min/mg protein
- ATPase activity, % of wildtype (BmrCD_E592Q^BmrD; [18]): 2.76%
- Turnover per transporter (BmrCD_E592Q^BmrD; [18]): 0.0896 min⁻¹
- turnover rate (BmrCD_E592Q^BmrD; BmrCD carrying the E-to-Q mutation): 0.09 ATP min^−1
- IF frac (TM287/288 [4]; [9]): 36.7%
- OF frac (TM287/288 [4]; [9]): 63.3%
- IF frac (TM287/288 [4]; [10]): 56.8%
- OF frac (TM287/288 [4]; [10]): 43.2%
- IF frac (TM287/288 [4]; [11]): 25.7%
- OF frac (TM287/288 [4]; [11]): 74.3%
- IF frac (TM287/288 E517Q; [12]): 5.79%
- OF frac (TM287/288 E517Q; [12]): 94.21%
- IF frac (TM287/288 E517Q; [13]): 24.9%
- OF frac (TM287/288 E517Q; [13]): 75.1%
- IF frac (TM287/288 E517Q; [14]): 13%
- OF frac (TM287/288 E517Q; [14]): 87%
- ATPase activity, % of wildtype (MsbA [7]; MsbA 561^MsbA): 90.4%
- Turnover per transporter (MsbA [7]; MsbA 561^MsbA): 16.6 min⁻¹
- ATPase activity (MsbA [7]; wildtype MsbA): 135 ± 9 nmol Pi/min/mg protein
- Turnover per transporter (MsbA [7]; wildtype MsbA): 18.4 min⁻¹
- ATPase activity, % of wildtype (Spin-labeled TM287/288; spin-labeled 131^TM288/248^TM288, ATP-Mg): 156* %
- ATPase activity, % of wildtype (Spin-labeled TM287/288; spin-labeled 150^TM287/295^TM288, ATP-Mg): 112* %
- ATPase activity, % of wildtype (Spin-labeled TM287/288; spin-labeled 231^TM287/304^TM287, ATP-Mg): 146* %
- ATPase activity, % of wildtype (Spin-labeled TM287/288; spin-labeled 350^TM287/475^TM288, ATP-Mg): 193* %
- ATPase activity, % of wildtype (Spin-labeled TM287/288; spin-labeled 460^TM287/363^TM288, ATP-Mg): 212* %
